pIC50: −log10 of the molar value.
System: COR L88 complex tumor spheroid viability
Assay: Anticancer human tumor COR L88 cell line growth inhibition;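 also: compound exposure lasted 7 days before viability readout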;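 as to viability, T/C: percent of DMSO vehicle-treated spheroids = 100%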
Conditions: for pIC50: curve of first compound; for viability, T/C: stronger effect = lower value
Text: Multicellular complex tumor spheroid response to DNA repair inhibitors in combination with DNA-damaging drugs
This study explores the anticancer activities of DNA-damaging drugs and inhibitors of DNA damage repair, both as single agents and in combinations. Complex tumor spheroids comprised of malignant cells, endothelial cells and mesenchymal stem cells served as an in vitro model for human solid tumors. This model system incorporates physiologically relevant features and patient-derived or established malignant cell lines with clinically relevant genetic alterations from many tumor types. Twenty-six patient-derived or established malignant cell lines were evaluated representing sarcoma, melanoma, small cell lung cancer (SCLC), non-small cell lung cancer (NSCLC), as well as bladder, ovarian and pancreatic cancers. The concentration ranges selected for each drug and investigational agent were based upon clinically achievable concentrations if the clinical Cmax of the agent was known.
Compounds. The drugs and compounds olaparib (NSC753686), talazoparib (NSC767125), berzosertib (NSC777718), elimusertib (NSC800525), nedisertib (NSC802822), VX-984 (NSC792969), AZD-1390 (NSC803789), temozolomide (NSC362856), topotecan (NSC609699), trabectedin (NSC813783), staurosporine (NSC755774), and gemcitabine (NSC613327) were obtained from the National Cancer Institute (NCI) Developmental Therapeutics Program Chemical Repository. The FDA-approved anticancer drug set is available from the Developmental Therapeutics Program at https://dtp.cancer.gov/organization/dscb/obtaining/available_plates.htm. […] The stock solutions were prepared in dimethyl sulfoxide (DMSO, Sigma-Aldrich, St. Louis, MO, cat. D2650) at 400-fold the tested concentration and stored at -70 degrees C. Prior to their use, the stock solutions were diluted in fresh medium and the final DMSO concentration in the assay was 0.25% (v/v). All drugs and investigational agents were tested over a range starting from a high concentration at or near the clinical Cmax and decreasing in half-log increments. If the clinical Cmax for an agent had not been determined, the highest concentration tested was 10 microM.
Cell Lines. The patient-derived cancer cell (PDC) lines: 156681-154-R-J1-PDC, 283228-195-R-J1-PDC, 287954-098-R-J1-PDC, 292921-168-R-J2-PDC, 349418-098-R-PDC, 425362-245-T-J1-PDC, 556581-035-R-J1-PDC, and BL0293-F563-PDC were received from the NCI Patient-Derived Models Repository (PDMR, https://pdmr.cancer.gov). The established cell lines HS-SY-2 (RRID:CVCL_8719), MPNST, and SYO-1 (RRID:CVCL_7146) were obtained from the Sloan Kettering Institute. The alveolar soft parts sarcoma cell line ASPS-1 (RRID:CVCL_S738) was established at the NCI and grown from internal seed stocks. The following established cell lines were purchased from the American Type Culture Collection (ATCC, Manassas, VA): G-401 (ATCC, cat. CRL-1441, RRID:CVCL_0270), SW982 (ATCC, cat. HTB-93, RRID:CVCL_1734), VA-ES-BJ (ATCC, cat. CRL-2138, RRID:CVCL_1785), NCI-H719 (ATCC, cat. CRL-5837, RRID:CVCL_1582), NCI-H196 (ATCC, cat. CRL-5823, RRID:CVCL_1509), NCI-H841 (ATCC, cat. CRL-5845, RRID:CVCL_1595), NCI-H1618 (ATCC, cat. CRL-5879, RRID:CVCL_1480), NCI-H1876 (ATCC, cat. CRL-5902, RRID:CVCL_1503), DMS 114 (ATCC, cat. CRL-2066; RRID:CVCL_1174), NCI-H211 (ATCC, cat. CRL-5824; RRID:CVCL_1529), and SW 1271 (ATCC, cat. CRL-2177, RRID:CVCL_1716). The small cell lung cancer cell line COR-L88 was purchased from Sigma-Aldrich (cat. 92031917-1VL, RRID:CVCL_1141). The non-small cell lung cancer cell lines NCI-H226 (RRID:CVCL_1544) and NCI-H322M (RRID:CVCL_1557) were established at the NCI and grown from internal seed stocks. Pooled donor human umbilical vein endothelial cells (HUVEC, Lonza, cat. CC-2519) and human mesenchymal stem cells (hMSC, Lonza, cat. PT-2501) were purchased from Lonza (Walkersville, MD).
Cell Culture. All cells were maintained in an incubator at 37 degrees C and 5% CO2 with 95% humidity. […]

[1] = second compound 0.003 µM, first compound 0.00949 µM
[2] = second compound 0.003 µM, first compound 0.03 µM
[3] = second compound 0.003 µM, first compound 0.0949 µM
[4] = second compound 0.003 µM, first compound 0.3 µM
[5] = second compound 0.003 µM, first compound 0.949 µM
[6] = second compound 0.003 µM, first compound 3 µM
[7] = second compound 0.00949 µM, first compound 0.00949 µM
[8] = second compound 0.00949 µM, first compound 0.03 µM
[9] = second compound 0.00949 µM, first compound 0.0949 µM
[10] = second compound 0.00949 µM, first compound 0.3 µM
[11] = second compound 0.00949 µM, first compound 0.949 µM
[12] = second compound 0.00949 µM, first compound 3 µM
[13] = second compound 0.03 µM, first compound 0.00949 µM
[14] = second compound 0.03 µM, first compound 0.03 µM
[15] = second compound 0.03 µM, first compound 0.0949 µM
[16] = second compound 0.03 µM, first compound 0.3 µM
[17] = second compound 0.03 µM, first compound 0.949 µM
[18] = second compound 0.03 µM, first compound 3 µM
[19] = second compound 0.0949 µM, first compound 0.00949 µM
[20] = second compound 0.0949 µM, first compound 0.03 µM
[21] = second compound 0.0949 µM, first compound 0.0949 µM
[22] = second compound 0.0949 µM, first compound 0.3 µM
[23] = second compound 0.0949 µM, first compound 0.949 µM
[24] = second compound 0.0949 µM, first compound 3 µM
[25] = second compound 0.3 µM, first compound 0.00949 µM
[26] = second compound 0.3 µM, first compound 0.03 µM
[27] = second compound 0.3 µM, first compound 0.0949 µM
[28] = second compound 0.3 µM, first compound 0.3 µM
[29] = second compound 0.3 µM, first compound 0.949 µM
[30] = second compound 0.3 µM, first compound 3 µM

| Compound | pIC50 (second compound 0.003 µM) | pIC50 (second compound 0.00949 µM) | pIC50 (second compound 0.03 µM) | pIC50 (second compound 0.0949 µM) | pIC50 (second compound 0.3 µM) | viability, T/C [3] | viability, T/C [4] | viability, T/C [5] | viability, T/C [6] | viability, T/C [9] | viability, T/C [10] | viability, T/C [11] | viability, T/C [12] | viability, T/C [15] | viability, T/C [16] | viability, T/C [17] | viability, T/C [18] | viability, T/C [21] | viability, T/C [22] | viability, T/C [23] | further results |
| --- | --- | --- | --- | --- | --- | --- | --- | --- | --- | --- | --- | --- | --- | --- | --- | --- | --- | --- | --- | --- | --- |
| CNCc1ccc(-c2cc(-c3nc(-c4ccc(S(=O)(=O)C(C)C)cc4)cnc3N)on2)cc1 + CC[C@@]1(O)C(=O)OCc2c1cc1n(c2=O)Cc2cc3c(CN(C)C)c(O)ccc3nc2-1 | 6.30 | 6.41 | 6.83 | 7.65 | > 8.02 | 105% | 64.2% | 30.1% | 9.59% | 88.2% | 53.7% | 30% | 9.92% | 62.6% | 32.5% | 17.3% | 9.44% | 24.9% | 16.2% | 11.7% | viability, T/C [1]: 94.4%; viability, T/C [2]: 102%; viability, T/C [7]: 103%; viability, T/C [8]: 99.7%; viability, T/C [13]: 60.8%; viability, T/C [14]: 63.6%; viability, T/C [19]: 55.3%; viability, T/C [20]: 49.5%; viability, T/C [24]: 7.2%; viability, T/C [25]: 43%; viability, T/C [26]: 29.2%; viability, T/C [27]: 14.9%; viability, T/C [28]: 9.3%; viability, T/C [29]: 7.79%; viability, T/C [30]: 5.02% |
| Cc1sc2c(c1C)C(c1ccc(Cl)cc1)=NC(CC(=O)Nc1ccc(O)cc1)c1nnc(C)n1-2 (stereo not given) + CC[C@@]1(O)C(=O)OCc2c1cc1n(c2=O)Cc2cc3c(CN(C)C)c(O)ccc3nc2-1 | 6.39 | 6.36 | 6.27 | 6.73 | 7.15 | 100% | 59.9% | 23.6% | 15.1% | 104% | 64.2% | 23.7% | 13.3% | 106% | 73% | 25.3% | 8.57% | 85.2% | 31.2% | 7.66% | viability, T/C [1]: 107%; viability, T/C [2]: 82.7%; viability, T/C [7]: 81.8%; viability, T/C [8]: 92.6%; viability, T/C [13]: 71.2%; viability, T/C [14]: 88.7%; viability, T/C [19]: 66.6%; viability, T/C [20]: 76.2%; viability, T/C [24]: 5.05%; viability, T/C [25]: 53.1%; viability, T/C [26]: 60.9%; viability, T/C [27]: 47.4%; viability, T/C [28]: 9.5%; viability, T/C [29]: 3.88%; viability, T/C [30]: 2.4% |
| Cn1ncnc1[C@H]1c2n[nH]c(=O)c3cc(F)cc(c23)N[C@@H]1c1ccc(F)cc1 + CC[C@@]1(O)C(=O)OCc2c1cc1n(c2=O)Cc2cc3c(CN(C)C)c(O)ccc3nc2-1 | 7.04 | > 8.02 | > 8.02 | > 8.02 | > 8.02 | 47.4% | 42.4% | 41.1% | 38.3% | 44.1% | 43.1% | 40.2% | 40.6% | 43.2% | 41.5% | 38.1% | 36.5% | 37.3% | 34.9% | 31.6% | viability, T/C [1]: 65.9%; viability, T/C [2]: 61.9%; viability, T/C [7]: 49.7%; viability, T/C [8]: 44%; viability, T/C [13]: 48.2%; viability, T/C [14]: 49.5%; viability, T/C [19]: 41.2%; viability, T/C [20]: 38.4%; viability, T/C [24]: 24.5%; viability, T/C [25]: 36%; viability, T/C [26]: 32.6%; viability, T/C [27]: 32.4%; viability, T/C [28]: 26.9%; viability, T/C [29]: 24.6%; viability, T/C [30]: 17.4% |
| O=C(c1cc(Cc2n[nH]c(=O)c3ccccc23)ccc1F)N1CCN(C(=O)C2CC2)CC1 + CC[C@@]1(O)C(=O)OCc2c1cc1n(c2=O)Cc2cc3c(CN(C)C)c(O)ccc3nc2-1 | 5.01 | 5.01 | 6.55 | > 7.02 | > 7.02 | 89% | 85.6% | 85.3% | 66% | 62.3% | 56.2% | 57.3% | 57.5% | 51.3% | 50.1% | 48.3% | 48% | 45.7% | 44% | 44.3% | viability, T/C (second compound 0.003 µM, first compound 9.49 µM): 51.3%; viability, T/C (second compound 0.003 µM, first compound 30 µM): 45.6%; viability, T/C (second compound 0.00949 µM, first compound 9.49 µM): 47.3%; viability, T/C (second compound 0.00949 µM, first compound 30 µM): 45.8%; viability, T/C (second compound 0.03 µM, first compound 9.49 µM): 45.9%; viability, T/C (second compound 0.03 µM, first compound 30 µM): 45.8%; viability, T/C [24]: 41.9%; viability, T/C (second compound 0.0949 µM, first compound 9.49 µM): 40.3%; viability, T/C (second compound 0.0949 µM, first compound 30 µM): 33%; viability, T/C [27]: 41.4%; viability, T/C [28]: 41%; viability, T/C [29]: 39%; viability, T/C [30]: 32.6%; viability, T/C (second compound 0.3 µM, first compound 9.49 µM): 24.4%; viability, T/C (second compound 0.3 µM, first compound 30 µM): 18.5% |

— PubChem BioAssay AID1845201 (Molecular Pharmacology Branch, DTP, NCI, 2023)
